Holding throughout (format): cell-based
The test system of test [1] is p-ERK. Put plainly: Cell p-ERK assay (HTRF, Advance ERK phospho-T202/Y204 kit) in AsPC-1 cells. The conditions noted are these: ASPC1; AsPC-1, human pancreatic cancer cell strain, KRAS G12D mutation; 3 h compound incubation. The protocol: AsPC-1 cells were purchased from ATCC, Cat. No. CRL-1682; NCI-H441 cells were purchased from ATCC, Cat. No. HTB-174; RPMI-1640 medium was purchased from Gibco, Cat. No. 11875-093; FBS was purchased from Gibco, Cat. No. 10099-141C; penicillin/streptomycin double-antibiotic solution (PS) was purchased from Gibco, Cat. No. 15140-122; trypsin (containing EDTA) was purchased from Gibco, Cat. No. 25200-072; DMSO was purchased from VWRAMRESCO, Cat. No. 0231-500ML; 96-well cell culture plates were purchased from Corning, Cat. No. 3599; white-bottomed, opaque 96-well plates were purchased from Cisbio, Cat. No. 66PL96025; Advance ERK phospho-T202/Y204 kit was purchased from Cisbio, Cat. No. 64AERPEH; cell counter was purchased from CHEMOMETEC, model: NC-200; microplate reader was purchased from PerkinElmer, model: EnVision.
AsPC-1, a human pancreatic cancer cell strain endogenously containing a KRAS^G12D mutation, was cultured in a complete medium containing RPMI-1640 + 10% FBS + 1% PS. NCI-H441, a human non-small cell lung cancer cell strain endogenously containing a KRAS^G12V mutation, was cultured in a complete medium containing RPMI-1640 + 10% FBS + 1% PS.
The cells were digested with trypsin (containing EDTA), collected in their corresponding complete media, and counted. The density of the cell suspensions was adjusted with their corresponding complete media, and AsPC-1 cells (10000 cells/well) or NCI-H441 cells (20000 cells/well) were seeded into a 96-well cell culture plate, with the volume of the medium in each well being 80 µL. The cell culture plate was incubated in an incubator at 37 °C with 5% CO2 overnight. A series of 3.16-fold gradient dilutions of a 1000× compound stock solution were prepared with DMSO, and then diluted 200-fold with the complete medium described above to give 5× compound stock solutions. On the day after cell seeding, 20 µL of the 5× compound stock solution was added to each cell culture well. As a result, the final concentration of the compound in the cell culture well became 1×, and the DMSO content in the well was 0.1%. In addition to the compound-treated wells described above, cell-containing DMSO control wells were also set. A complete medium containing 0.5% DMSO was added at 20 µL/well. After the mixture was well mixed, the culture plate was incubated in the incubator at 37 °C with 5% CO2 for another 3 h. The medium was then removed from the culture wells, and 50 µL of cell lysis buffer (from Advance ERK phospho-T202/Y204 kit) was added to each well. The mixture was well mixed, incubated for 30 min, and then transferred to a white-bottomed, opaque 96-well assay plate at 16 µL/well, and separately, 16 µL of cell lysis buffer was added to additional wells (serving as blank wells) in the assay plate. After the transfer was completed, 4 µL of p-ERK HTRF antibody mixture (from Advance ERK phospho-T202/Y204 kit) was added to each well of the assay plate, followed by a 4-hour incubation. The HTRF signal values (RLU) were then measured using a microplate reader, and the inhibition rate of the compound against p-ERK levels was calculated as follows: IR(%) = (RLUDMSO - RLUcompound)/(RLUDMSO - RLUblank) × 100%, where RLUDMSO is the average HTRF signal value from the DMSO control well samples, RLU is the average HTRF signal value from the blank well samples, and RLUcompound is the HTRF signal value from the compound-treated well samples. Using an XLfit software, the IR(%) values were plotted against the logarithm of the compound concentrations, and the dose-response curves were fitted using the four-parameter method to calculate the IC50 values.

The subject of test [2] is p-ERK. The test can be described thus: Cell p-ERK assay (HTRF, Advance ERK phospho-T202/Y204 kit) in NCI-H441 cells. To be noted: Homo sapiens, NCI-H441, 3 h, NCI-H441, human non-small cell lung cancer cell strain, KRAS G12V mutation; 3 h compound incubation. An outline of the steps:
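Phospho-ERK (T202/Y204) measured by HTRF in lysates of AsPC-1 (KRAS G12D) or NCI-H441 (KRAS G12V) cells after 3 h compound exposure at 37 °C in RPMI-1640 + 10% FBS, 0.1% DMSO. Inhibition normalised to DMSO and blank wells; IC50 by four-parameter fit.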
Background: In TR-FRET formats the signal depends on donor and acceptor labels being close together.

Test [3] has as its system NCI-H441 cells. The test can be described thus: 3D cell proliferation assay (CellTiter Glo-3D) in NCI-H441 cells. The conditions noted are these: NCI-H441, human lung cancer cell strain, KRAS G12V mutation, 3D culture, 2% FBS, 5 days, read-out: H441 AP IC50. From the text: MIA PaCa-2 cells were purchased from ATCC, Cat. No. CRL-1420; AsPC-1 cells were purchased from ATCC, Cat. No. CRL-1682; NCI-H441 cells were purchased from ATCC, Cat. No. HTB-174; NCI-H1975 cells were purchased from ATCC, Cat. No. CRL-5908; DMEM medium was purchased from Gibco, Cat. No. 11995-065; RPMI-1640 medium was purchased from Gibco, Cat. No. 11875-093; FBS was purchased from Gibco, Cat. No. 10099-141C; penicillin/streptomycin double-antibiotic solution (PS) was purchased from Gibco, Cat. No. 15140-122; Horse serum was purchased from Gibco, Cat. No. 16050130; trypsin (containing EDTA) was purchased from Gibco, Cat. No. 25200-072; DMSO was purchased from VWRAMRESCO, Cat. No. 0231-500ML; 384-well cell culture plates were purchased from Corning, Cat. No. 3830; white-bottomed, opaque 384-well assay plates were purchased from Corning, Cat. No. 3570; CellTiter Glo-3D kit was purchased from Promega, Cat. No. G9683; cell counter was purchased from CHEMOMETEC, model: NC-200; microplate reader was purchased from PerkinElmer, model: EnVision.
MIA PaCa-2, a human pancreatic cancer cell strain endogenously containing a KRAS^G12Cmutation, was cultured in a complete medium containing DMEM + 10% FBS + 2.5% Horse serum + 1% PS. AsPC-1, a human pancreatic cancer cell strain endogenously containing a KRAS^G12D mutation, was cultured in a complete medium containing RPMI-1640 + 10% FBS + 1% PS. NCI-H441 cells, a human lung cancer cell strain endogenously containing a KRAS^G12V mutation, were cultured in a complete medium containing RPMI-1640 + 10% FBS + 1% PS. NCI-H1975, a KRAS wild-type human lung cancer cell strain whose cell proliferation […], was cultured in a complete medium containing RPMI-1640 + 10% FBS + 1% PS.
The cells were digested with trypsin (containing EDTA), collected in their respective low-serum complete media containing 2% FBS (for MIA Paca-2 cell culture: DMEM + 2% FBS + 0.5% Horse serum + 1% PS), and counted. After the cell density was adjusted as required, MIA PaCa-2 cells (200 cells/well), AsPC-1 cells (800 cells/well), NCI-H441 cells (800 cells/well), or NCI-H1975 cells (400 cells/well) were seeded into a 384-well cell culture plate, with the volume of the medium in each well being 45 µL. The cell culture plate was incubated in an incubator at 37 °C with 5% CO2 overnight. A series of 3.16-fold gradient dilutions of a 1000× compound stock solution were prepared with DMSO, and then diluted 100-fold with the complete medium containing 2% FBS described above to give 10× compound stock solutions. On the day after cell seeding, 5 µL of the 10× compound stock solution was added to each cell culture well. As a result, the final concentration of the compound in the cell culture well became 1×, and the DMSO content in the well was 0.1%. In addition to the compound-treated wells described above, cell-containing DMSO control wells (with 5 µL of the complete medium containing 1% DMSO added to each well) and cell-free medium control wells (containing 50 µL of the complete medium with 2% FBS) were also set. The culture plate was incubated in an incubator at 37 °C with 5% CO2 for another 5 days, and then 30 µL of CellTiter-Glo working solution was added to each well. The mixture was well mixed, incubated for 30 min, left to stand at room temperature for 30 min, and then transferred to a white-bottomed, opaque 384-well assay plate at 40 µL/well. The chemiluminescence values (RLU) were measured using a microplate reader, and the cell proliferation inhibition rate for each well was calculated: IR(%) = (RLUDMSO - RLUcompound)/(RLUDMSO - RLUblank) × 100%, where RLUDMSO is the average RLU signal value from the DMSO control well samples, RLUblank is the average RLU signal value from the medium control well samples, and RLUcompound is the RLU signal value from the compound-treated well samples. […]
(Cellular ATP, detected with luciferase, serves as a proxy for viable cell number.)

From patent EP4772514A1, “MACROCYCLIC COMPOUNDS, PREPARATION METHOD THEREFOR, AND USE THEREOF” (Genfleet Therapeutics (Shanghai) Inc., priority 2023, dated 2025) come the findings set out here.

The IC50 is the concentration at which inhibition is half-maximal.

SMILES strings stand for the structures. Like-named read-outs stand apart in the source and are kept apart here.

For the compound `CCn1nc2c(c1-c1cc(N3CCN(C)CC3)cnc1[C@H](C)OC)CC(C)(C)COC(=O)[C@@H]1CCCN(N1)C(=O)[C@@H](NC(=O)[C@H]1[C@H](C)[C@@H]1C)Cc1nc(cs1)/C=C/2` (atropisomer, axis not shown) [Compound Z4], the values for the IC50 in test [1] and in test [2] were 367 nM and 157 nM, respectively.

`CCn1cc2c(c1-c1cc(C#CCN3CCC(C#N)CC3)cnc1[C@H](C)OC)CC(C)(C)COC(=O)[C@@H]1CCCN(N1)C(=O)[C@@H](NC(=O)[C@H]1[C@@H]3COC[C@@H]31)Cc1nc(co1)/C=C/2` (atropisomer, axis not shown; (Ra)) [Compound Z85, (1R,5S,6r)-N-((4^2Z,8^3S,2E,6S)-(Ra)-1^5-(5-(3-(4-cyanopiperidin-1-yl)prop-1-yn-1-yl)-2-((S)-1-methoxyethyl)pyridin-3-yl)-1^1-ethyl-12,12-dimethyl-7,9-dioxo-8^1,8^2,8^3,8^4,8^5,8^6-hexahydro-1^1H-10-oxa-4(4,2)-oxazola-8(1,3)-pyridazina-1(3,4)-pyrrolacyclotridecaphan-2-en-6-yl)-3-oxabicyclo[3.1.0]hexane-6-carboxamide]: the IC50 in test [1] amounted to 0.04 nM; in test [2], 0.2 nM.

On to `CCn1nc2c(c1-c1cc(N3CCN(C)CC3)cnc1[C@H](C)OC)CC(C)(C)COC(=O)[C@@H]1CCCN(N1)C(=O)[C@@H](NC(=O)[C@H]1[C@H](C)[C@@H]1C)Cc1nc(cs1)/C=C/2` (single isomer, unassigned) [Compound Z4-1], for which the IC50 in test [1] came out at 191 nM; in test [2], 71.8 nM.

In the case of `CCn1cc2c(c1-c1cc(C#CCN3CCC(C#N)(CN)CC3)cnc1[C@H](C)OC)CC(C)(C)COC(=O)[C@@H]1CCCN(N1)C(=O)[C@@H](NC(=O)[C@H]1[C@H](C)[C@@H]1C)Cc1nc(co1)/C=C/2` (atropisomer, axis not shown; (Ra)) [Compound Z234, (1r,2R,3S)-N-((4^2Z,8^3 S,2E,6S)-(Ra)-1^5-(5-(3-(4-(aminomethyl)-4-cyanopiperidin-1-yl)prop-1-yn-1-yl)-2-((S)-1-methoxyethyl)pyridin-3-yl)-1^1-ethyl-12,12-dimethyl-7,9-dioxo-8^1,8^2,8^3,8^4,8^5,8^6-hexahydro-1^1H-10-oxa-4(4,2)-oxazola-8(1,3)-pyridazina-1(3,4)-pyrrolacyclotridecaphan-2-en-6-yl)-2,3-dimethylcyclopropane-1-carboxamide], the values for the IC50 in test [1] and in test [2] were 0.07 nM and 0.36 nM, respectively.

`CCn1c(-c2cc(N3CCN(C)CC3)cnc2[C@H](C)OC)c2c3cc(ccc31)NC(=O)OC[C@H](NC(=O)[C@H]1[C@H](C)[C@@H]1C)C(=O)N1CCC[C@H](N1)C(=O)OCC(C)(C)C2` (single isomer, unassigned) [Compound Z2-1]: the IC50 stood at 374 nM in test [3] (Homo sapiens, NCI-H441, 120 h) and 239 nM in test [2].

Take `CCn1nc2c(c1-c1cc(C#CCN3CCS(=O)(=O)CC3)cnc1C(C)OC)CC(C)(C)COC(=O)C1CCCN(N1)C(=O)C(NC(=O)C(C)Cc1ccnc(NC)c1)Cc1nc(cs1)C=C2` (single isomer, unassigned) [Compound Z52-1]: the figures for the IC50 in test [3] and in test [2] were 76.5 nM and 52.3 nM, respectively.

As to `CCn1nc2c(c1-c1cc(C#CCN3CCS(=O)(=O)CC3)cnc1[C@H](C)OC)CC(C)(C)COC(=O)[C@@H]1CCCN(N1)C(=O)[C@@H](NC(=O)[C@H](C(C)C)N1CCC(C)C1=O)Cc1nc(cs1)/C=C/2` (atropisomer, axis not shown; (Ra)) [Compound Z116, (2S)-N-((4^2Z,8^3S,2E,6S)-(Ra)-1^5-(5-(3-(1,1-dioxothiomorpholinyl)prop-1-yn-1-yl)-2-((S)-1-methoxyethyl)pyridin-3-yl)-1^1-ethyl-12,12-dimethyl-7,9-dioxo-8^1,8^2,8^1,8^4,8^5,8^6-hexahydro-1^1H-10-oxo-4 (4,2)-thiazola-8(1,3)-pyridazina-1(3,4)-pyrrolacyclotridecaphan-2-en-6-yl)-3-methyl-2-(3-methyl-2-oxopyrrolidin-1-yl)butanamide], the IC50 in test [3] (Homo sapiens, NCI-H441, 120 h) came out at 386 nM; in test [2], 115 nM.
